Source: patent US4436925A, “Addition compound of dipeptide derivative and amino acid derivative” (Toyo Soda Manufacturing Co., Ltd., priority 1977, dated 1984)
Where a SMILES comes first, the peptide text is derived from it.

Key:
[1] = times of that of sugar; cited from earlier work
[2] = Solubility in water or diluted hydrochloric acid

solubility ([2]; in water at 25° C.) [g/100 g water]	Compound	sweetness relative to sugar [1]	solubility ([2]; in diluted hydrochloric acid (10^-2 M) at 25° C.)
	COC(=O)[C@H](Cc1ccccc1)NC(=O)[C@@H](N)CC(=O)O [α-L-Aspartyl-L-phenylalanine methyl ester] (H-Asp-Phe-OMe)	about 200 times	
0.028	COC(=O)[C@H](Cc1ccccc1)NC(=O)[C@H](CC(=O)O)NC(=O)OCc1ccccc1		0.017 g/100 g diluted hydrochloric acid (10^-2 M)
